The data set is classed as in vivo, Sprague-Dawley rats. The note with it: mean of three rats, liver. As for the experimental part:
The configurational stereoisomers of flocoumafen are separated by high-pressure liquid chromatography using a LUX® Cellulose-4 chiral column (00F-4490-B0, Phenomenex, Le Pecq, France) as stationary phase and a mixture formed from acetonitrile (A) and water comprising 0.1% by volume of formic acid (B), with an A/B volume ratio of 92/8, as mobile phase with a flow rate of the liquid mobile phase in the chromatography column of 0.25 mL/minute. 1 μL of extract comprising flocoumafen at a concentration of 1 μg/mL of acetonitrile is injected. Detection is performed by tandem mass spectrometry (MS/MS) in negative electrospray ionization (ESI) mode. The temperature of the nebulizer gas is 350° C. and its flow rate is 8 L/minute. The pressure of the nebulizer gas is brought to 2700 hPa. In particular, the MRM (“Multiple Reaction Monitoring”) transitions m/z 541.1→382.1 and m/z 541.1→161, corresponding to the flocoumafen signal, are analysed.
Extraction of Flocoumafen from the Liver of Rats Tube-Fed with Flocoumafen
About 0.525 g (±0.025 g) of rat liver is weighed out accurately and placed in a 50 mL polypropylene tube. 10 mL of acetone are added and the suspension is homogenized using an Ultra-Turrax® homogenizer/disperser for a time of about 30 seconds. The homogenizer/disperser shaft is rinsed with hot water and then twice with 20 mL of acetone in a polypropylene tube. The homogenate is centrifuged for 5 minutes at a centrifugation speed of 3000 rpm (revolutions per minute). The supernatant is collected and transferred into a test tube. The sample is subjected to evaporation under a stream of nitrogen (N2) at a temperature of 40° C. so as to form a dry extract.
1 mL of acetonitrile is added to the tube containing the dry extract so as to dissolve it. The acetonitrile solution is washed twice successively with 1 mL of hexane. The lipid-free extract is dried under a stream of nitrogen (N2) at a temperature of 40° C. and is then taken up in 0.5 mL of methanol and dissolved by vortex stirring. 0.5 mL of ultra-pure (Milli-Q) water is then added. The sample is vortex-homogenized.
1 mL of dichloromethane (CH2Ct2), then 1 mL of methanol (CH3OH), then 1 mL of ultra-pure (Milli-Q) water are passed through an Oasis HLB 1 cc cartridge (WAT094225, Waters). The lipid-free liver extract (1 mL MeOH/Milli-Q H2O) containing flocoumafen is then loaded onto the top of the cartridge beforehand. The liver extract penetrates through the cartridge by gravity on contact with the solid phase of the cartridge. 1 mL of washing solution formed from methanol (CH3OH) and ultra-pure water (H2O) in a 90/10 volume proportion is loaded onto the top of the cartridge. The cartridge is dried by suction under vacuum connected to the bottom of the cartridge. 1 mL of eluting solution formed from dichloromethane (CH2Cl2) and methanol (CH3OH) in a 90/10 volume proportion is then loaded onto the top of the cartridge and an eluate comprising flocoumafen is collected at the bottom of the cartridge. The solvent of the eluate is evaporated off under a stream of nitrogen (N2) at a temperature of 40° C. The sample is taken up in 0.5 mL of acetonitrile (NC—CH3) and the acetonitrile solution containing flocoumafen is filtered through a 0.2 μm porosity filter.
Hepatic Persistence of the Configurational Stereoisomers (E1, E2, E3 and E4) of Flocoumafen in Rats
A solution comprising flocoumafen in a mixture of vegetable oil and 5% of DMSO so that the amount of flocoumafen ingested by each rat is about 2.3 mg per kilogram of rat is administered orally (per os) to 8-week-old male and female laboratory rats (Sprague-Dawley rats, Charles River, Saint-Germain-sur-l'Arbresle, France) weighing between 180 and 200 g. The tube-fed rats are treated daily by subcutaneous administration of a dose of vitamin K1 at a rate of 1 U per rat so as to keep the rats alive throughout the experiment. […]

[1] abbreviates: female rats, D+1 after oral tube-feeding of flocoumafen about 2.3 mg/kg (mixture of 4 stereoisomers).
The mark [2] stands for this setting: female rats, D+3 after oral tube-feeding of flocoumafen about 2.3 mg/kg (mixture of 4 stereoisomers).
Setting [3] is: female rats, D+7 after oral tube-feeding of flocoumafen about 2.3 mg/kg (mixture of 4 stereoisomers).
Where [4] appears, read: male rats, D+1 after oral tube-feeding of flocoumafen about 2.3 mg/kg (mixture of 4 stereoisomers).
Where [5] appears, read: male rats, D+3 after oral tube-feeding of flocoumafen about 2.3 mg/kg (mixture of 4 stereoisomers).
Setting [6] is: male rats, D+7 after oral tube-feeding of flocoumafen about 2.3 mg/kg (mixture of 4 stereoisomers).

We go through four compounds from US10654822B2, “Composition and rodenticidal bait comprising flocoumafen, and process for controlling target rodent pests” (priority 2015, dated 2020).

Like-named read-outs stand apart in the source and are kept apart here.

Turning to `O=c1oc2ccccc2c(O)c1C1CC(c2ccc(OCc3ccc(C(F)(F)F)cc3)cc2)Cc2ccccc21` (single isomer, unassigned) [Enantiomer E1, flocoumafen], the Hepatic concentration runs as follows: under setting [1], 4585 ng/g; under setting [2], 2692 ng/g; under setting [3], 1196 ng/g; under setting [4], 196 ng/g; under setting [5], 47 ng/g; under setting [6], 0 ng/g.
As for `O=c1oc2ccccc2c(O)c1C1CC(c2ccc(OCc3ccc(C(F)(F)F)cc3)cc2)Cc2ccccc21` (single isomer, unassigned) [Enantiomer E2, flocoumafen], the Hepatic concentration reads like this: under setting [1], 5396 ng/g; under setting [2], 2522 ng/g; under setting [3], 469 ng/g; under setting [4], 3904 ng/g; under setting [5], 1962 ng/g; under setting [6], 319 ng/g.
Regarding `O=c1oc2ccccc2c(O)c1C1CC(c2ccc(OCc3ccc(C(F)(F)F)cc3)cc2)Cc2ccccc21` (single isomer, unassigned) [Enantiomer E3, flocoumafen], the Hepatic concentration under setting [1] turned out to be 5478 ng/g; the Hepatic concentration under setting [2] was 2734 ng/g; the Hepatic concentration under setting [3] is recorded as 1228 ng/g; the Hepatic concentration under setting [4] came to 3301 ng/g; the Hepatic concentration under setting [5] was 1862 ng/g; the Hepatic concentration under setting [6] is listed as 647 ng/g.
`O=c1oc2ccccc2c(O)c1C1CC(c2ccc(OCc3ccc(C(F)(F)F)cc3)cc2)Cc2ccccc21` (single isomer, unassigned) [Enantiomer E4, flocoumafen]: the Hepatic concentration reads like this: under setting [1], 10342 ng/g; under setting [2], 7765 ng/g; under setting [3], 5054 ng/g; under setting [4], 8143 ng/g; under setting [5], 9906 ng/g; under setting [6], 2623 ng/g.
